Tests used:
Format in all cases: cell-based
[1] = test system: fibroblasts CAF47, CAF51, CAF98, and CAF104; experiment: Confirmation of inhibition of senescence of fibroblasts (shape observation); settings: FIG. 2
Procedure: An experiment was performed to confirm changes in shapes of fibroblasts by treating several fibroblasts CAF47, CAF51, CAF98, and CAF104 with an anti-cancer drug, 5-fluorouracil (5-FU), and then treating Example thereto.
FIG. 2 illustrates results of observing the shapes of fibroblasts under various conditions according to Experimental Example of the present disclosure.

SNU668 cells = experiment: Cell viability of gastric cancer cells cultured in fibroblast conditioned media; settings: FIG. 3
Procedure: Gastric cancer cells, SNU668 cells, were cultured in conditioned media of fibroblasts, CAF98 and CAF104, respectively, and treated with Example to confirm changes in cell viability of cancer cells.
FIG. 3 illustrates results of confirming the cell viability of SNU66, a gastric cancer cell, under various conditions according to Experimental Example of the present disclosure.

SNU668 = experiment: Migration of gastric cancer cells in fibroblast condition media / co-culture with CAFs; settings: for migration of gastric cancer cells: FIGS. 4 and 5
Procedure: An experiment was performed to confirm changes in migration of gastric cancer cells when treating gastric cancer cells with a substance according to Example (ftaxilide).
SNU668 was co-cultured with 5-FU in various types of fibroblast condition media, and sequentially additionally treated with 5-FU and Example to confirm changes in the migration of gastric cancer cells.
FIG. 4 illustrates results of observing the migration of SNU668, a gastric cancer cell, under various conditions according to Experimental Example of the present disclosure.
FIG. 5 illustrates results of measuring the migration of SNU668, a gastric cancer cell, under various conditions according to Experimental Example of the present disclosure.

[2] = CAF treated with Example (100 μM 5-FU+5 μM Example)

Row | Structure (SMILES) | shapes of fibroblasts ([1]; fibroblasts treated with 5-FU, then with Example) | cell viability of cancer cells (SNU668 cells; SNU668 in conditioned medium of CAF98 and CAF104, 5-FU, further treated with Example (C98_5FU_Ftaxil, C104_5FU_Ftaxil)) | senescence of CAF (SNU668; [2]) | migration of gastric cancer cells (SNU668; [2]) | shapes of fibroblasts (characteristics of senescent cells) ([1]; fibroblasts CAF47, CAF51, CAF98, CAF104 treated with 5-FU) | cell viability of cancer cells (SNU668 cells; SNU668 in conditioned medium of CAF98 and CAF104, treated with 5-FU (C98_5FU, C104_5FU)) | migration of gastric cancer cells (SNU668; CAFs senesced by 5-FU then co-cultured with SNU668 (100 μM 5-FU)) | migration of gastric cancer cells (SNU668; SNU668 treated with 5-FU (SNU668+5FU))
1 | Cc1cccc(C)c1NC(=O)c1ccccc1C(=O)O [Example, Ftaxilide] | the senescent fibroblasts returned to their original shapes | decreased again | the senescence of CAF was prevented | decreased again |  |  |  | 
2 | O=c1[nH]cc(F)c(=O)[nH]1 [Example 5-FU, 5-fluorouracil] |  |  |  |  | the cell sizes increased and the cell growth rate slowed down | the cell viability of cancer cells further increased | the migration of gastric cancer cells further increased | the migration of gastric cancer cells increased

From US20240197658A1, “COMPOSITION FOR INHIBITING ANTI-CANCER DRUG RESISTANCE” (AJOU UNIVERSITY INDUSTRY-ACADEMIC COOPERATION FOUNDATION, priority 2022, published 2024)
